From US20250026778A1 (TIUMBIO CO., LTD., priority 2021, published 2025) come the findings set out here.

Structures are written as SMILES. Where two headings read alike, the source gives them in different places. Where only a bound is given, the exact number is not on record here.

For this experiment, the target named is T1, his-galectin-3 (Homo sapiens, UniProt P17931).
T1 construct: purchased Abcam
Briefly: TR-FRET assay (in vitro galectin-3 binding inhibitory activity test). To be noted: compound at 20 μM, 60 nM his-galectin-3, 15 nM biotin-ASF. In outline: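 Compound is premixed with his-galectin-3 (60 nM final), then biotin-ASF (15 nM), Tb anti-His antibody (2 nM) and streptavidin-d2 (20 nM) are added. After at least 3.5 hours at RT in HEPES/NaCl buffer with Tween 20 and BSA, TR-FRET is read at 615/665 nm. DMSO serves as the uninhibited control, ASF omission as background.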

The mark [1] stands for this setting: Table 1, read-out: % Inhibitory activity (at 20 μM).
The mark [2] stands for this setting: Table 2, read-out: % Inhibitory activity (at 20 μM).
Where [3] appears, read: read-out: % Inhibitory activity (at 20 μM), Table 1.

T1 sequence (P17931 whole entry): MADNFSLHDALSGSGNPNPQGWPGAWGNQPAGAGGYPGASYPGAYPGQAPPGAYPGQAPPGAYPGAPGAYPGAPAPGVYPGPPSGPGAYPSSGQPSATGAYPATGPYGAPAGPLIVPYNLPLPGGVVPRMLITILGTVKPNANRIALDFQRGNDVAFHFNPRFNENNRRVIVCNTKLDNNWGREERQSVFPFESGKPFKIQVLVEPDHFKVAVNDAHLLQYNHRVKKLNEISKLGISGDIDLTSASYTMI

Take `CN(Cc1cccc(Cl)c1)[C@@H]1CCO[C@]12O[C@H](CO)[C@H](O)[C@H](n1cc(-c3cc(F)c(F)c(F)c3)nn1)[C@H]2O` [Compound A103, (4R,5S,7R,8R,9S,10R)-4-((3-chlorobenzyl)(methyl)amino)-7-(hydroxymethyl)-9-(4-(3,4,5-trifluorophenyl)-1H-1,2,3-triazol-1-yl)-1,6-dioxaspiro[4.5]decane-8,10-diol]: under setting [1], the inhibition at 20 µM was less than 25%.
Still for that read-out and setting: next, `OC[C@H]1O[C@@]2(CCCCO2)[C@H](OCc2ccc3c(c2)OCO3)[C@@H](n2cc(-c3cc(F)c(F)c(F)c3)nn2)[C@H]1O` [Compound A44, (2R,3R,4S,5R,6S)-5-(benzo[d][1,3]dioxol-5-ylmethoxy)-2-(hydroxymethyl)-4-(4-(3,4,5-trifluorophenyl)-1H-1,2,3-triazol-1-yl)-1,7-dioxaspiro[5.5]undecan-3-ol]: 25 to 50%.
On to `OC[C@H]1O[C@@]2(CCCCO2)[C@H](OCc2cccc(F)c2)[C@@H](n2cc(-c3cc(F)c(F)c(F)c3)nn2)[C@H]1O` [Compound A48, (2R,3R,4S,5R,6S)-5-((3-fluorobenzyl)oxy)-2-(hydroxymethyl)-4-(4-(3,4,5-trifluorophenyl)-1H-1,2,3-triazol-1-yl)-1,7-dioxaspiro[5.5]undecan-3-ol], for which the inhibition at 20 µM reads like this: under setting [1], 25 to 50%; (Table 3, found values, read-out: % Inhibitory activity (at 20 μM)) 43.7%.
As to `O=C(N[C@@H]1CCO[C@]12O[C@H](CO)[C@H](O)[C@H](n1cc(-c3cc(F)c(F)c(F)c3)cn1)[C@H]2O)c1cccc2ccc(Cl)cc12` [Compound A238, 7-chloro-N-((4R,5S,7R,8R,9S,10R)-8,10-dihydroxy-7-(hydroxymethyl)-9-(4-(3,4,5-trifluorophenyl)-1H-pyrazol-1-yl)-1,6-dioxaspiro[4.5]decan-4-yl)-1-naphthamide], the inhibition at 20 µM under setting [2] was greater than 75%.
Consider `O=C(O)CO[C@@H]1[C@@H](n2cc(-c3cc(F)c(F)c(F)c3)nn2)[C@@H](O)[C@@H](CO)O[C@@]12CCCCO2` [Compound A54, 2-(((2R,3R,4S,5R,6S)-3-hydroxy-2-(hydroxymethyl)-4-(4-(3,4,5-trifluorophenyl)-1H-1,2,3-triazol-1-yl)-1,7-dioxaspiro[5.5]undecan-5-yl)oxy)acetic acid], for which, under setting [3], the inhibition at 20 µM was 25 to 50%.
For the compound `O=C(N[C@@H]1CCO[C@]12O[C@H](CO)[C@H](O)[C@H](n1cc(-c3cc(F)c(F)c(F)c3)nn1)[C@H]2O)c1ccccc1Oc1ccccc1` [Compound A171, N-((4R,5S,7R,8R,9S,10R)-8,10-dihydroxy-7-(hydroxymethyl)-9-(4-(3,4,5-trifluorophenyl)-1H-1,2,3-triazol-1-yl)-1,6-dioxaspiro[4.5]decan-4-yl)-2-phenoxybenzamide], where the note is “read-out: % Inhibitory activity (at 20 μM), Table 2”, the inhibition at 20 µM fell in the range of 25 to 50%.
`OC[C@H]1O[C@@]2(CCCO2)[C@H](OCc2cncc(F)c2)[C@@H](n2cc(-c3cc(F)c(F)c(F)c3)nn2)[C@H]1O` [Compound A84, (5S,7R,8R,9S,10R)-10-((5-fluoropyridin-3-yl)methoxy)-7-(hydroxymethyl)-9-(4-(3,4,5-trifluorophenyl)-1H-1,2,3-triazol-1-yl)-1,6-dioxaspiro[4.5]decan-8-ol]: the inhibition at 20 µM under setting [3] was less than 25%.
On to `O=C(CO[C@@H]1[C@@H](n2cc(-c3cc(F)c(F)c(F)c3)nn2)[C@@H](O)[C@@H](CO)O[C@@]12CCCO2)c1ccccc1` [Compound A20, 2-(((5S,7R,8R,9S,10R)-8-hydroxy-7-(hydroxymethyl)-9-(4-(3,4,5-trifluorophenyl)-1H-1,2,3-triazol-1-yl)-1,6-dioxaspiro[4.5]decan-10-yl)oxy)-1-phenylethanone], for which the inhibition at 20 µM under setting [1] was 25 to 50%.
Turning to `O=C(N[C@@H]1CCO[C@]12O[C@H](CO)[C@H](O)[C@H](n1cc(-c3cc(F)c(F)c(F)c3)nn1)[C@H]2O)c1csc2ccc(Br)cc12` [Compound A251, 5-bromo-N-((4R,5S,7R,8R,9S,10R)-8,10-dihydroxy-7-(hydroxymethyl)-9-(4-(3,4,5-trifluorophenyl)-1H-1,2,3-triazol-1-yl)-1,6-dioxaspiro[4.5]decan-4-yl)benzo[b]thiophene-3-carboxamide], under setting [2], the inhibition at 20 µM was greater than 75%.
